This passage reports cell viability results from the supplement of paper PMC11451515.

Structures are written as SMILES.

The subject of the assay is P12-Ichikawa. Kind of assay: cell viability relative to DMSO control; higher = less cytotoxic. The following applies: 48 h. A digest of the protocol:
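Viability, reported as a per-plate percentage of DMSO wells with cell-free wells as background, came from CellTiter-Glo One luminescence. Reading took place after 48 h at 37°C. Before that, NOMO1 or SEM (500 cells/well) or P12-Ichikawa (1000 cells/well) leukemia cells, adapted for at least four passages in each medium, were seeded in 1536-well plates (5 μl) and pin-dosed with library compounds in DMSO, 47 μM to 0.79 nM over 11 threefold points.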

The mark [1] stands for this setting: HPLM + 10% dialyzed FBS, 0.000781 µM.
[2] abbreviates: HPLM + 10% dialyzed FBS, 0.00234 µM.
The mark [3] stands for this setting: HPLM + 10% dialyzed FBS, 0.00702 µM.
Setting [4] is: HPLM + 10% dialyzed FBS, 0.0211 µM.
[5] abbreviates: HPLM + 10% dialyzed FBS, 0.0632 µM.
[6] abbreviates: HPLM + 10% dialyzed FBS, 0.19 µM.
The mark [7] stands for this setting: HPLM + 10% dialyzed FBS, 0.569 µM.
The mark [8] stands for this setting: HPLM + 10% dialyzed FBS, 1.71 µM.
Setting [9] is: HPLM + 10% dialyzed FBS, 5.12 µM.
The mark [10] stands for this setting: HPLM + 10% dialyzed FBS, 15.4 µM.
[11] abbreviates: HPLM + 10% dialyzed FBS, 46.1 µM.
The mark [12] stands for this setting: RPMI 5 mM glucose + 10% dialyzed FBS, 0.000781 µM.
Setting [13] is: RPMI 5 mM glucose + 10% dialyzed FBS, 0.00234 µM.
Setting [14] is: RPMI 5 mM glucose + 10% dialyzed FBS, 0.00702 µM.
Where [15] appears, read: RPMI 5 mM glucose + 10% dialyzed FBS, 0.0211 µM.
Setting [16] is: RPMI 5 mM glucose + 10% dialyzed FBS, 0.0632 µM.
The mark [17] stands for this setting: RPMI 5 mM glucose + 10% dialyzed FBS, 0.19 µM.
Where [18] appears, read: RPMI 5 mM glucose + 10% dialyzed FBS, 0.569 µM.
Setting [19] is: RPMI 5 mM glucose + 10% dialyzed FBS, 1.71 µM.
[20] abbreviates: RPMI 5 mM glucose + 10% dialyzed FBS, 5.12 µM.
Setting [21] is: RPMI 5 mM glucose + 10% dialyzed FBS, 15.4 µM.
The mark [22] stands for this setting: RPMI 5 mM glucose + 10% dialyzed FBS, 46.1 µM.

In the case of `CC(C)(C)C(=O)Oc1ccc2c(c1)nc(NC(=O)c1cccc([N+](=O)[O-])c1)n2CCCO`, the cell viability under setting [1] worked out at 120%; the cell viability under setting [2] was determined as 123%; the cell viability under setting [3] stood at 118%; the cell viability under setting [4] was 119%; the cell viability under setting [5] turned out to be 115%; the cell viability under setting [6] was 119%. Also, the cell viability worked out at 116% under setting [7]; 106% under setting [8]; 109% under setting [9]; 111% under setting [10]; 106% under setting [11]; 118% under setting [12]. The cell viability reads like this: under setting [13], 122%; under setting [14], 121%; under setting [15], 117%; under setting [16], 118%; under setting [17], 112%; under setting [18], 115%. Further, the cell viability stood at 103% under setting [19], 111% under setting [20], 97.4% under setting [21] and 89.4% under setting [22].

With `CC(C)c1cnn2c(NCc3ccccc3)cc(N[C@@H](CO)[C@H](O)CO)nc12`, the cell viability runs as follows: under setting [1], 121%; under setting [2], 128%; under setting [3], 124%; under setting [4], 127%; under setting [5], 129%; under setting [6], 127%. Besides, the cell viability runs as follows: under setting [7], 120%; under setting [8], 35.4%; under setting [9], 8.12%; under setting [10], 5.35%; under setting [11], 4.01%.

Consider `C[C@]12C[C@H](O)[C@H]3[C@@H](CC\C4=C\C(=O)\C=C/[C@]34C)[C@@H]1CC[C@]2(O)C(=O)CO`, for which the cell viability is 128% under setting [12]; 118% under setting [13]; 119% under setting [14]; 121% under setting [15]; 117% under setting [16]; 107% under setting [17]. Besides, the cell viability reads like this: under setting [18], 88.2%; under setting [19], 69.7%; under setting [20], 57.9%; under setting [21], 52%; under setting [22], 14%.
